Target: recombinant Mcl-1 (residues 172-327) (Homo sapiens (Human), UniProt Q07820)
Test: Bak peptide fluorescence polarization anisotropy competition assay, Mcl-1
Format: binding
Conditions: not given

Sequence of recombinant Mcl-1 (residues 172-327) (Q07820 172-327): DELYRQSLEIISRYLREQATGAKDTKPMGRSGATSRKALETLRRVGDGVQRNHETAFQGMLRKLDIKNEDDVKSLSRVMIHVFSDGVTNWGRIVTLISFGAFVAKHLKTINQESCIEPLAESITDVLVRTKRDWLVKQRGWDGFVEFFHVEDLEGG

Row | SMILES | Ki [nM]
1 | Cc1cccc(S(=O)(=O)NC(=O)c2c(CCCOc3cc(C)c(Cl)c(C)c3)c3ccc(Cl)cc3n2Cc2cccnc2)c1 [Example 273, 6-chloro-3-(3-(4-chloro-3,5-dimethylphenoxy)propyl)-1-(pyridin-3-ylmethyl)-N-(m-tolylsulfonyl)-1H-indole-2-carboxamide] | 101 to 299

Same assay, conditions: Table 2, Ki range; FITC-Bak peptide 10 nM, Mcl-1 14 nM; read-out: Ki for inhibition of Mcl-1

Row | Ki [nM] | SMILES
2 | ≤ 100 | Cc1cc(OCCCc2c(C(=O)NS(=O)(=O)CCNC(=O)c3cccn3C)[nH]c3cc(Cl)ccc23)cc(C)c1Cl [Example 233, 6-chloro-3-(3-(4-chloro-3,5-dimethylphenoxy)propyl)-N-((2-(1-methyl-1H-pyrrole-2-carboxamido)ethyl)sulfonyl)-1H-indole-2-carboxamide]
3 | ≤ 100 | Cc1cc2nnnn2cc1-c1cccc2c(CCCOc3cc(C)c(Cl)c(C)c3)c(C(=O)NS(=O)(=O)c3ccccc3)[nH]c12 [Example 300, 3-(3-(4-chloro-3,5-dimethylphenoxy)propyl)-7-(7-methyltetrazolo[1,5-a]pyridin-6-yl)-N-(phenylsulfonyl)-1H-indole-2-carboxamide]
4 | ≤ 100 | Cc1cc2nccn2cc1-c1cccc2c(CCCOc3cc(C)c(Cl)c(C)c3)c(C(=O)NS(=O)(=O)c3ccccc3)[nH]c12 [Example 299, 3-(3-(4-chloro-3,5-dimethylphenoxy)propyl)-7-(7-methylimidazo[1,2-a]pyridin-6-yl)-N-(phenylsulfonyl)-1H-indole-2-carboxamide]
5 | ≤ 100 | Cc1cc(OCCCc2c(C(=O)NS(=O)(=O)CCNC(=O)C(C)C)[nH]c3cc(Cl)ccc23)cc(C)c1Cl [Example 253, 6-chloro-3-(3-(4-chloro-3,5-dimethylphenoxy)propyl)-N-((2-isobutyramidoethyl)sulfonyl)-1H-indole-2-carboxamide]

Same assay, conditions: read-out: Ki for inhibition of Mcl-1

Row | Ki [nM] | SMILES
6 | 1000 to 9990 | CS(=O)(=O)NC(=O)c1[nH]c2cc(Cl)ccc2c1CCCOc1cccc2c1CCC2 [Example 106, 6-chloro-3-(3-((2,3-dihydro-1H-inden-4-yl)oxy)propyl)-N-(methylsulfonyl)-1H-indole-2-carboxamide]
7 | 101 to 299 | Cc1cc(OCCCc2c(C(=O)NS(=O)(=O)CCNC(=O)c3cccn3-c3ccccc3)[nH]c3ccccc23)cc(C)c1Cl [Example 172, 3-(3-(4-chloro-3,5-dimethylphenoxy)propyl)-N-((2-(1-phenyl-1H-pyrrole-2-carboxamido)ethyl)sulfonyl)-1H-indole-2-carboxamide]
8 | 501 to 999 | Cc1cc(OCCCc2c(C(=O)NS(=O)(=O)CCNC(=O)c3nccn3Cc3ccccc3)[nH]c3ccccc23)cc(C)c1Cl [Example 173, N-((2-(1-benzyl-1H-imidazole-2-carboxamido)ethyl)sulfonyl)-3-(3-(4-chloro-3,5-dimethylphenoxy)propyl)-1H-indole-2-carboxamide]
9 | 101 to 299 | Cc1cc(OCCCc2c(C(=O)NS(=O)(=O)CCNC(=O)c3cc(C)n(C4CC4)c3C)[nH]c3ccccc23)cc(C)c1Cl [Example 193, 3-(3-(4-chloro-3,5-dimethylphenoxy)propyl)-N-((2-(1-cyclopropyl-2,5-dimethyl-1H-pyrrole-3-carboxamido)ethyl)sulfonyl)-1H-indole-2-carboxamide]
10 | 1000 to 9990 | Cc1ccccc1-c1ccc2c(CCCOc3cccc4ccccc34)c(C(=O)O)sc2c1 [Example 12, 3-(3-(naphthalen-1-yloxy)propyl)-6-(o-tolyl)benzo[b]thiophene-2-carboxylic acid]
11 | 501 to 999 | CC(=O)N1CCC(CS(=O)(=O)NC(=O)c2[nH]c3ccccc3c2CCCOc2cc(C)c(Cl)c(C)c2)CC1 [Example 210, N-(((1-acetylpiperidin-4-yl)methyl)sulfonyl)-3-(3-(4-chloro-3,5-dimethylphenoxy)propyl)-1H-indole-2-carboxamide]
12 | 501 to 999 | CS(=O)(=O)NC(=O)c1[nH]c2cccc(Br)c2c1CCCOc1cccc2ccccc12 [Example 115, 4-bromo-N-(methylsulfonyl)-3-(3-(naphthalen-1-yloxy)propyl)-1H-indole-2-carboxamide]
13 | 301 to 500 | Cc1cc(OCCCc2c(C(=O)NS(=O)(=O)c3ccc(OCc4ccccc4)nc3)[nH]c3cc(Cl)ccc23)cc(C)c1Cl [Example 225, N-((6-(benzyloxy)pyridin-3-yl)sulfonyl)-6-chloro-3-(3-(4-chloro-3,5-dimethylphenoxy)propyl)-1H-indole-2-carboxamide]
14 | 301 to 500 | CCOc1ccc(Oc2ccc(S(=O)(=O)NC(=O)c3[nH]c4cc(Cl)ccc4c3CCCOc3cc(C)c(Cl)c(C)c3)cc2)cc1 [Example 223, 6-chloro-3-(3-(4-chloro-3,5-dimethylphenoxy)propyl)-N-((4-(4-ethoxyphenoxy)phenyl)sulfonyl)-1H-indole-2-carboxamide]
15 | 101 to 299 | Cc1cc(OCCCc2c(C(=O)NS(=O)(=O)CCNS(=O)(=O)c3ccc(Cl)c(Cl)c3)[nH]c3ccccc23)cc(C)c1Cl [Example 148, 3-(3-(4-chloro-3,5-dimethylphenoxy)propyl)-N-((2-(3,4-dichlorophenylsulfonamido)ethyl)sulfonyl)-1H-indole-2-carboxamide]
16 | 1000 to 9990 | O=C(O)c1sc2c(NCc3ccccc3)cccc2c1CCCOc1cccc2ccccc12 [Example 73, 7-(benzylamino)-3-(3-(naphthalen-1-yloxy)propyl)benzo[b]thiophene-2-carboxylic acid]
17 | 301 to 500 | Cc1cc(OCCCc2c(C(=O)NS(=O)(=O)CCNC(=O)NC3CCCCC3)[nH]c3ccccc23)cc(C)c1Cl [Example 199, 3-(3-(4-chloro-3,5-dimethylphenoxy)propyl)-N-((2-(3-cyclohexylureido)ethyl)sulfonyl)-1H-indole-2-carboxamide]
18 | 1000 to 9990 | CS(=O)(=O)NC(=O)c1[nH]c2ccccc2c1CCCOc1ccc2c(c1)CCCC2 [Example 38, N-(methylsulfonyl)-3-(3-((5,6,7,8-tetrahydronaphthalen-2-yl)oxy)propyl)-1H-indole-2-carboxamide]
19 | 101 to 299 | Cc1cc(OCCCc2c(C(=O)NS(=O)(=O)c3cccc(C(=O)NC4CCOCC4)c3)[nH]c3ccccc23)cc(C)c1Cl [Example 202, 3-(3-(4-chloro-3,5-dimethylphenoxy)propyl)-N-((3-((tetrahydro-2H-pyran-4-yl)carbamoyl)phenyl)sulfonyl)-1H-indole-2-carboxamide]
20 | 101 to 299 | Cc1cc(OCCCc2c(C(=O)NS(C)(=O)=O)[nH]c3cc(Cl)ccc23)cc(C)c1Cl [Example 54, 6-chloro-3-(3-(4-chloro-3,5-dimethylphenoxy)propyl)-N-(methylsulfonyl)-1H-indole-2-carboxamide]
21 | 301 to 500 | Cc1cc(OCCCc2c(C(=O)NS(=O)(=O)C3CCN(C(=O)C4CCCCC4)CC3)[nH]c3cc(Cl)ccc23)cc(C)c1Cl [Example 212, 6-chloro-3-(3-(4-chloro-3,5-dimethylphenoxy)propyl)-N-((1-(cyclohexanecarbonyl)piperidin-4-yl)sulfonyl)-1H-indole-2-carboxamide]
22 | 301 to 500 | Cc1cc(OCCCc2c(C(=O)NS(C)(=O)=O)[nH]c3ccccc23)ccc1Cl [Example 20, 3-(3-(4-chloro-3-methylphenoxy)propyl)-N-(methylsulfonyl)-1H-indole-2-carboxamide]
23 | 101 to 299 | COc1ccc(Cn2cccc2C(=O)NCCS(=O)(=O)NC(=O)c2[nH]c3cc(Cl)ccc3c2CCCOc2cc(C)c(Cl)c(C)c2)cc1 [Example 249, 6-chloro-3-(3-(4-chloro-3,5-dimethylphenoxy)propyl)-N-((2-(1-(4-methoxybenzyl)-1H-pyrrole-2-carboxamido)ethyl)sulfonyl)-1H-indole-2-carboxamide]
24 | 501 to 999 | Cc1ccc2c(CCCOc3cccc4ccccc34)c(C(=O)O)sc2c1 [Example 9, 6-methyl-3-(3-(naphthalen-1-yloxy)propyl)benzo[b]thiophene-2-carboxylic acid]
25 | 101 to 299 | CCc1ccc(CC(=O)NCCS(=O)(=O)NC(=O)c2[nH]c3ccccc3c2CCCOc2cc(C)c(Cl)c(C)c2)cc1 [Example 174, 3-(3-(4-chloro-3,5-dimethylphenoxy)propyl)-N-((2-(2-(4-ethylphenyl)acetamido)ethyl)sulfonyl)-1H-indole-2-carboxamide]
26 | 1000 to 9990 | Cc1cc(OCCCc2c(C(=O)NS(=O)(=O)CCNC(=O)c3cnn(Cc4ccccc4)c3)[nH]c3ccccc23)cc(C)c1Cl [Example 184, N-((2-(1-benzyl-1H-pyrazole-4-carboxamido)ethyl)sulfonyl)-3-(3-(4-chloro-3,5-dimethylphenoxy)propyl)-1H-indole-2-carboxamide]
27 | 101 to 299 | Cc1cc(OCCCc2c(C(=O)NS(=O)(=O)CCN3C(=O)c4ccccc4C3=O)[nH]c3cc(Cl)ccc23)cc(C)c1Cl [Example 250, 6-chloro-3-(3-(4-chloro-3,5-dimethylphenoxy)propyl)-N-((2-(1,3-dioxoisoindolin-2-yl)ethyl)sulfonyl)-1H-indole-2-carboxamide]
28 | 1000 to 9990 | Cc1cc(OCCCc2c(C(=O)NS(=O)(=O)c3ccc(OCc4ccccc4)cc3)n(Cc3cccnc3)c3cc(Cl)ccc23)cc(C)c1Cl [Example 274, N-((4-(benzyloxy)phenyl)sulfonyl)-6-chloro-3-(3-(4-chloro-3,5-dimethylphenoxy)propyl)-1-(pyridin-3-ylmethyl)-1H-indole-2-carboxamide]
29 | 301 to 500 | Cc1cc(OCCCc2c(C(=O)NS(=O)(=O)c3ccccc3)n(C)c3cc(Cl)ccc23)cc(C)c1Cl [Example 269, 6-chloro-3-(3-(4-chloro-3,5-dimethylphenoxy)propyl)-1-methyl-N-(phenylsulfonyl)-1H-indole-2-carboxamide]
30 | 101 to 299 | Cc1cc(OCCCc2c(C(=O)NS(=O)(=O)CCNC(=O)c3ccoc3C)[nH]c3cc(Cl)ccc23)cc(C)c1Cl [Example 227, 6-chloro-3-(3-(4-chloro-3,5-dimethylphenoxy)propyl)-N-((2-(2-methylfuran-3-carboxamido)ethyl)sulfonyl)-1H-indole-2-carboxamide]
31 | 101 to 299 | Cc1cc(OCCCc2c(C(=O)NS(=O)(=O)CCNC(=O)c3cc(C)n(Cc4ccncc4)c3C)[nH]c3ccccc23)cc(C)c1Cl [Example 195, 3-(3-(4-chloro-3,5-dimethylphenoxy)propyl)-N-((2-(2,5-dimethyl-1-(pyridin-4-ylmethyl)-1H-pyrrole-3-carboxamido)ethyl)sulfonyl)-1H-indole-2-carboxamide]

Source: patent US10844032B2, “Substituted benzofuran, benzothiophene and indole Mcl-1 inhibitors” (Vanderbilt University, priority 2012, dated 2020)
